In patent US20220151999A1, “METHODS OF TREATING ATTENTION DEFICIT HYPERACTIVITY DISORDER USING KDM1A INHIBITORS SUCH AS THE COMPOUND VAFIDEMSTAT” (ORYZON GENOMICS, S.A., priority 2019, published 2022):

What was measured:
Assay type in all cases: in vivo, human
ADHD patients [1] = assay: REIMAGINE Phase IIa trial, ADHD cohort: aggression by Clinical Global Impression (CGI-S, CGI-I) scales; settings: adult ADHD patients (5 eligible), 1.2 mg/day oral, 5 days on/2 days off, 8 weeks
Source text: (§1) As part of a Phase IIa clinical trial (REIMAGINE trial, EudraCT number 2018-002140-88) to evaluate the safety, tolerability and efficacy of the KDM1A inhibitor vafidemstat to treat aggression in adult population in patients with different CNS disorders, a cohort of ADHD patients was recruited and treated with vafidemstat for 8 weeks. A summary of the protocol of this clinical trial and results obtained in the ADHD cohort are provided below.
(§2) Reimagine is a unicenter, open-label, 1-arm, 8-week clinical study to evaluate the efficacy, safety and tolerability of vafidemstat in aggression in adult population with Alzheimer's Disease (AD), Lewy Body Dementia (LBD), Adult attention Deficit Hyperactivity Disorder (ADHD), Borderline Personality Disorder (BPD) and Autism Spectrum Disorder (ASD). Six patients to be recruited per disorder. […]
(§3) Evaluation of the effect of treatment with vafidemstat on aggression was performed using the Clinical Global Impression (CGI) scale. […] In addition to assessing its effect on aggression, the effect of treatment with vafidemstat on ADHD patients was also evaluated using the Attention Deficit Hyperactivity Disorder Rating Scale (ADHD-RS), a validated scale that is specific for ADHD and is widely used to evaluate ADHD in adults. […] Each item is scored from 0 to 3 points, with the highest scores indicating the presence of problematic symptoms/behavior. […]

ADHD patients [2] = assay: REIMAGINE Phase IIa trial, ADHD cohort: safety and tolerability; settings: adult ADHD patients, 1.2 mg/day oral, 5 days on/2 days off, 8 weeks
Source text: as §1
Reimagine is a unicenter, open-label, 1-arm, 8-week clinical study to evaluate the efficacy, safety and tolerability of vafidemstat in aggression in adult population with Alzheimer's Disease (AD), Lewy Body Dementia (LBD), Adult attention Deficit Hyperactivity Disorder (ADHD), Borderline Personality Disorder (BPD) and Autism Spectrum Disorder (ASD). Six patients to be recruited per disorder.
Main objective of the trial: To evaluate the safety and tolerability of vafidemstat in adult population with Alzheimer's Disease (AD), Lewy Body Dementia (LBD), Adult attention deficit hyperactivity disorder (ADHD), Borderline Personality Disorder (BPD), Autism Spectrum Disorder (ASD)
Treatment: All patients received vafidemstat (as free base) at a dose of 1.2 mg/day, administered orally as a single capsule, in a 5 days on/2 days off schedule, during 8 weeks. […]

ADHD patients [3] = assay: REIMAGINE Phase IIa trial, ADHD cohort: ADHD Rating Scale (ADHD-RS); settings: adult ADHD patients (5 eligible), 1.2 mg/day oral, 5 days on/2 days off, 8 weeks; paired one-tail t-test p=0.0279
Source text: as §1, §2, §3

## Nc1nnc(CN[C@@H]2C[C@H]2c2ccc(OCc3ccccc3)cc2)o1 [vafidemstat, 5-((((1R,2S)-2-(4-(benzyloxy)phenyl)cyclopropyl)amino)methyl)-1,3,4-oxadiazol-2-amine]
ADHD patients [1]; paired one-tail t-test p=0.0043
  CGI-Severity (CGI-S) score, aggression, change from visit 1 (baseline) to visit 7: statistically significant reductions
ADHD patients [1]; paired one-tail t-test p=0.0352
  CGI-Improvement (CGI-I) score, aggression, change from visit 1 (baseline) to visit 7: statistically significant reductions
ADHD patients [2]
  safety and tolerability of treatment: safe and well tolerated, without significant adverse events
ADHD patients [3]
  ADHD-RS score, change from visit 1 (baseline) to visit 7: statistically significant reduction
